Calls of active or inactive are those of the source.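 How the source made its calls: active means mean IC50 for reducing PEG3 promoter reporter signal at or below a set limit, with IC50 above the limit in both counter screens; inactive means the rest, including counter screen hits.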
Key:
[1] = inhibition of PEG-3 promoter-driven reporter – cell-based, HeLa, luciferase, CREF/GAPDH counter-screen panel, dose response (AID 624167); settings: CREF/GAPDH counter-screens; GAPDH; mean of runs
GAPDH = assay: as above; settings: CREF/GAPDH counter-screens
PEG-3 [2] = target: PEG-3 (UniProt Q6IN02); assay: as above; settings: HeLa PEG-Prom luciferase reporter, overnight, CREF/GAPDH counter-screens, mean of runs
PEG-3 [3] = assay: as above; settings: HeLa PEG-Prom luciferase reporter, overnight, CREF/GAPDH counter-screens
Rat fibroblasts (CREF) = assay: as above; settings: CREF/GAPDH counter-screens
[4] = run 1, dose range 1, individual replicate IC50 per panel
[5] = run 2, dose range 1, individual replicate IC50 per panel

PEG-3 (UniProt Q6IN02), sequence (Q6IN02 whole entry, looked up): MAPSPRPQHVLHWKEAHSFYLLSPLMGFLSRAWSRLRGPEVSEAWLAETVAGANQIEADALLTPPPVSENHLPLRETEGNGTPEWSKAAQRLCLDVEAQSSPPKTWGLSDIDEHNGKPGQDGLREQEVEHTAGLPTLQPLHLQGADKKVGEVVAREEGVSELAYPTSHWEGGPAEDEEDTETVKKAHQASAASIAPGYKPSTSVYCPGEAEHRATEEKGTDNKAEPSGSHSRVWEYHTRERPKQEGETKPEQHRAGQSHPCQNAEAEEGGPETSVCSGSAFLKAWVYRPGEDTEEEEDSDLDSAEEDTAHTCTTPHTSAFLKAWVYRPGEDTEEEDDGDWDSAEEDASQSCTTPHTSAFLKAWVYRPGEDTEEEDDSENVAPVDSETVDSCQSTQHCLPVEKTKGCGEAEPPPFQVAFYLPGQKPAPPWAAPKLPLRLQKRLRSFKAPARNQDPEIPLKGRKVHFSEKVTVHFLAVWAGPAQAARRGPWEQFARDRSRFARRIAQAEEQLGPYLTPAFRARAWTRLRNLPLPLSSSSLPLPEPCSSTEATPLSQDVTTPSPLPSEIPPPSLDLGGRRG

Row | SMILES | IC50 [1] | IC50 (GAPDH; [4]) | IC50 (GAPDH; [5]) | IC50 (PEG-3 [2]) | IC50 (PEG-3 [3]; [4]) | IC50 (PEG-3 [3]; [5]) | IC50 (Rat fibroblasts (CREF); mean of runs) | IC50 (Rat fibroblasts (CREF); [4]) | IC50 (Rat fibroblasts (CREF); [5])
1 | CN1C/C(=C/c2ccccc2[N+](=O)[O-])C(=O)/C(=C\c2ccccc2[N+](=O)[O-])C1 | inactive | > 100 µM | 79.4 µM | 5.91 µM | 5.67 µM | 6.14 µM | 27.4 µM | 30 µM | 24.9 µM
2 | COc1cccc2c1C(=O)c1c(O)c3c(c(O)c1C2=O)CC(O)(C(C)=NNC(=O)c1ccc(Cl)c(Cl)c1)CC3OC1CC(N)C(O)C(C)O1 (centres undefined) | 7.16 µM | 3.35 µM | 11 µM | 0.954 µM | 1.43 µM | 0.476 µM | 0.588 µM | 0.717 µM | 0.46 µM
3 | CCSc1nc2ccccc2n1C(=O)/C=C\c1ccc(OC)c(OC)c1 | 14.6 µM | 14.2 µM | 15 µM | 5.47 µM | 4.86 µM | 6.08 µM | 72.8 µM (inactive) | 45.7 µM | > 100 µM
4 | COc1ccc(C(NC(C)=O)c2ccc3cccnc3c2O)c(OC)c1 (centres undefined) | > 100 µM (inactive) | > 100 µM | > 100 µM | 5.33 µM | 3.68 µM | 6.97 µM | 51.8 µM (inactive) | 3.55 µM | > 100 µM
5 | CCCCC(=O)NC(c1ccccc1)c1ccc2cccnc2c1O (centres undefined) | > 100 µM (inactive) | > 100 µM | > 100 µM | inactive | 2.84 µM | > 100 µM | > 100 µM (inactive) | > 100 µM | > 100 µM
6 | O=C(COc1ccc2c(c1)CCC2)Nc1ccccn1 | 5.82 µM | 2.94 µM | 8.7 µM | 4.55 µM | 3.52 µM | 5.59 µM | 33.2 µM | 29.2 µM | 37.2 µM
7 | C/C(=N\NC(=O)c1c(C)nc2ccccn12)c1ccc(O)cc1O | > 100 µM (inactive) | > 100 µM | > 100 µM | 0.922 µM | 1.31 µM | 0.534 µM | 62.8 µM (inactive) | > 100 µM | 25.5 µM
8 | CC1=CC2C(C(O)CC3(C)C2CC(C)C32OCOC23COCO3)C2(C)C/C(=C\O)C(=O)C=C12 (centres undefined) | 9.16 µM | 7.69 µM | 10.6 µM | 6.07 µM | 7.13 µM | 5.01 µM | 8.5 µM | 7.69 µM | 9.3 µM
9 | CCC(=O)NC(c1ccc(C)cc1)c1ccc2cccnc2c1O (centres undefined) | inactive | 46.6 µM | > 100 µM | inactive | 1.31 µM | > 100 µM | > 100 µM (inactive) | > 100 µM | > 100 µM
10 | O=C(O)c1ccc(N/N=C/c2ccc3c(c2)OCO3)cc1 | 2.02 µM | 1.37 µM | 2.67 µM | 1.56 µM | 1.24 µM | 1.89 µM | 52.3 µM (inactive) | 57.5 µM | 47.1 µM
11 | C=Cc1cc(OC)c2c(c1)c(=O)oc1c2cc(OC)c2c(O)ccc(C3OC(C)C(O)C(C)(O)C3O)c21 (centres undefined) | inactive | > 100 µM | 64.1 µM | 2.56 µM | 2.17 µM | 2.96 µM | > 100 µM (inactive) | > 100 µM | > 100 µM
12 | C=CCn1c(C)cc(C(=O)COc2ccc(C)nc2[N+](=O)[O-])c1C | 24 µM | 8.8 µM | 39.1 µM | 1.4 µM | 1.55 µM | 1.26 µM | > 100 µM (inactive) | > 100 µM | > 100 µM
13 | O=[N+]([O-])c1nn(-c2ccc3c(c2)OCCO3)n(O)c1=Nc1ccc(Cl)cc1 | 5.17 µM | 2.94 µM | 7.41 µM | 0.673 µM | 1.07 µM | 0.271 µM | > 100 µM (inactive) | > 100 µM | > 100 µM
14 | CC1CC(C)C(=O)C(C(CC2CC(=O)NC(=O)C2)OC(=O)CC(=O)c2ccccc2)C1 (centres undefined) | 1.01 µM | 0.605 µM | 1.42 µM | 1.16 µM | 1.78 µM | 0.549 µM | > 100 µM (inactive) | > 100 µM | > 100 µM
15 | NC(C(=O)O)C1ON=C(Cl)C1O (centres undefined) | 2.86 µM | 0.927 µM | 4.8 µM | 0.703 µM | 0.639 µM | 0.767 µM | > 100 µM (inactive) | > 100 µM | > 100 µM
16 | CCc1ccc(/C=C2\SC(=S)N(CCCC(=O)Nc3ccccn3)C2=O)cc1 | 27.8 µM | 15.6 µM | 40.1 µM | 4.03 µM | 5.21 µM | 2.85 µM | 50.2 µM (inactive) | > 100 µM | 0.313 µM

Row | SMILES | IC50 [1] | IC50 (GAPDH; [4]) | IC50 (GAPDH; [5]) | IC50 (PEG-3 [2]) | IC50 (PEG-3 [3]; [4]) | IC50 (PEG-3 [3]; [5]) | IC50 (Rat fibroblasts (CREF); mean of runs) | IC50 (Rat fibroblasts (CREF); [4]) | IC50 (Rat fibroblasts (CREF); [5])
17 | O=C(Nc1ccccc1C(=O)Nc1nnc(C(F)(F)F)s1)c1ccccc1 | 7.97 µM | 2.28 µM | 13.7 µM | inactive | 7.01 µM | > 100 µM | > 100 µM (inactive) | > 100 µM | > 100 µM
18 | O=C(CCl)N1c2ccccc2Sc2ccc3ccccc3c21 | 25.1 µM | 26.7 µM | 23.4 µM | 8.68 µM | 12.2 µM | 5.18 µM | 26.3 µM | 24.5 µM | 28.1 µM
19 | CN(C)c1c([N+](=O)[O-])cc(N2C(=O)C=CC2=O)cc1[N+](=O)[O-] | 23.6 µM | 24.6 µM | 22.7 µM | 6.53 µM | 7.49 µM | 5.58 µM | 14 µM | 10.7 µM | 17.3 µM
20 | CC1=NOC(=O)/C1=C\c1ccc(-c2ccccc2Br)o1 | 18.3 µM | 16.9 µM | 19.7 µM | 10.7 µM | 11.3 µM | 10.1 µM | 50 µM | 24.6 µM | 75.3 µM
21 | O=C(c1ccco1)N1CCN(C(c2ccccc2Cl)c2nnnn2Cc2cccs2)CC1 (centres undefined) | inactive | 14.5 µM | 58.7 µM | inactive | 3.28 µM | > 100 µM | > 100 µM (inactive) | > 100 µM | > 100 µM
22 | CCCC(=O)NC(c1ccc(N(C)C)cc1)c1ccc2cccnc2c1O (centres undefined) | > 100 µM (inactive) | > 100 µM | > 100 µM | 1.75 µM | 2.74 µM | 0.758 µM | 72.3 µM (inactive) | > 100 µM | 44.7 µM
23 | O=C(N/N=C/c1ccc(Cl)c([N+](=O)[O-])c1)c1cc(-c2ccc3c4c(cccc24)CC3)n[nH]1 | 23 µM | 22.8 µM | 23.2 µM | 8.14 µM | 11.2 µM | 5.1 µM | > 100 µM (inactive) | > 100 µM | > 100 µM
24 | O=[N+]([O-])c1ccc(S(=O)(=O)c2ccccc2)nc1 | inactive | 33.8 µM | 29.1 µM | 9 µM | 9.44 µM | 8.56 µM | 54.4 µM (inactive) | 8.84 µM | > 100 µM
25 | CC(C)(C)c1ccc(Oc2ccc(N)cc2)cc1 | 1.44 µM | 0.457 µM | 2.43 µM | 4.49 µM | 4.88 µM | 4.1 µM | 74.7 µM (inactive) | 74.7 µM | > 100 µM
26 | O=C(CCSc1nc2ccccc2s1)N/N=C/c1c(O)ccc2ccccc12 | > 100 µM (inactive) | > 100 µM | > 100 µM | 4.29 µM | 5.86 µM | 2.71 µM | > 100 µM (inactive) | > 100 µM | > 100 µM
27 | CN1CCC2(CC1)N=C(c1ccc(F)cc1)C(=S)N2C(=O)c1ccc(C(C)(C)C)cc1 | 20.5 µM | 20.4 µM | 20.6 µM | 3.75 µM | 6.48 µM | 1.01 µM | 36.5 µM | 28.6 µM | 44.5 µM
28 | O=C(Nc1ccc(Cc2ccncc2)cc1)c1ccc([N+](=O)[O-])o1 | inactive | 56.6 µM | 63.3 µM | 10.5 µM | 13.2 µM | 7.69 µM | 14.2 µM | 14 µM | 14.3 µM
29 | CN(C(=O)COC(=O)/C=C/c1cccc([N+](=O)[O-])c1)C1CCS(=O)(=O)C1 (centres undefined) | > 100 µM (inactive) | > 100 µM | > 100 µM | 0.452 µM | 0.452 µM | 0.452 µM | > 100 µM (inactive) | > 100 µM | > 100 µM
30 | C(=N\Nc1ccc2ccccc2n1)/c1ccc2c(c1)OCCO2 | 3.75 µM | 6.78 µM | 0.719 µM | 6.99 µM | 5.86 µM | 8.13 µM | 51.2 µM (inactive) | 2.43 µM | > 100 µM
31 | COC1CC(C)C(OC)c2cc(O)cc(c2O)NC(=O)C(C)=CC=CC(C)C(OC(N)=O)C(C)=CC(C)C1OC (centres undefined) | inactive | 45.1 µM | 45.7 µM | 13.8 µM | 22.2 µM | 5.41 µM | > 100 µM (inactive) | > 100 µM | > 100 µM
